Where “and” joins values, the source holds several entries; their conditions need not be identical. Equal values may be shown once.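 The compound was tested at five concentrations on cells cultured in 96-well plates, with a 48-hour exposure period. Here, GI50 denotes the concentration required for 50% inhibition of growth. TGI: total growth inhibition.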
How the values were obtained:
Assay in all cases: inhibition of tumour cell growth, NCI panel, 48 h
[1] = test system: A549 NSCLC
[2] = test system: COLO 205 colon
[3] = test system: RPMI-8226 leukemia
[4] = test system: LOX IMVI melanoma
[5] = test system: SK-OV-3 ovarian
[6] = test system: NCI-H226 lung
[7] = test system: ACHN renal
[8] = test system: MALME-3M melanoma
[9] = test system: MDA-MB-435
[10] = test system: PC-3 prostate

Compound	TGI [1]	TGI [2]	TGI [3]	TGI [4]	TGI [5]	TGI [6]	TGI [7]	TGI [8]	GI50 [1]	GI50 [9]	TGI [9]	GI50 [2]	GI50 [3]	GI50 [4]	GI50 [5]	GI50 [7]	GI50 [8]	GI50 [10]	TGI [10]	GI50 [6]
CCOC(=O)c1cc(/C=C/C(C)=C/C(=O)OC)oc1-c1ccccc1	> 100 µM	> 100 µM	> 100 µM	> 100 µM	> 100 µM	> 100 µM	> 100 µM	> 100 µM												
Cc1nc2ccccc2c(=O)n1/N=C(\N=Nc1cc(Cl)ccc1Cl)c1cccc(-c2ccco2)c1	> 100 µM	> 100 µM	> 100 µM	> 100 µM	> 100 µM	> 100 µM	> 100 µM	> 100 µM												
Cc1ccc(C2CC(c3ccc([N+](=O)[O-])cc3)=Nc3ccccc3S2)cc1 (centres undefined)	> 100 µM	> 100 µM	44.9 µM	34.6 µM	> 100 µM	> 100 µM	> 100 µM	> 100 µM												
COc1cc(NS(C)(=O)=O)ccc1Nc1c2ccccc2nc2c(C)cccc12	1.25 µM and 1.04 µM	2.59 µM and 5.16 µM	0.853 µM and 0.717 µM	1.35 µM and 1.51 µM	7.8 µM and 11 µM		1.28 µM and 1.57 µM	3.81 µM and 3.2 µM	0.0189 µM and 0.0234 µM	0.626 µM and 1.44 µM	11.9 µM and 18.1 µM	0.245 µM and 0.243 µM	0.187 µM and 0.134 µM	0.0512 µM and 0.0544 µM	0.302 µM and 0.332 µM	0.0427 µM and 0.0464 µM	0.312 µM and 0.251 µM	0.629 µM and 1.05 µM	18.6 µM and 25.5 µM	
O=C(CC(=O)c1ccc([N+](=O)[O-])cc1)C(=O)Nc1nccs1	> 100 µM	> 100 µM	> 100 µM	> 100 µM	> 100 µM	> 100 µM	> 100 µM	> 100 µM												
CC(=O)Nc1ccc(-c2c3nc(c(-c4cc5ccccc5[n+](C)c4)c4ccc([nH]4)c(-c4ccc(NC(C)=O)cc4)c4nc(c(-c5cc6ccccc6[n+](C)c5)c5ccc2[nH]5)C=C4)C=C3)cc1	35.4 µM	26.7 µM	> 50 µM	> 50 µM	35.6 µM		26.6 µM	> 50 µM	8.6 µM	7.19 µM	30.6 µM	12.9 µM	21.6 µM	12.5 µM	11.1 µM	10.3 µM	16.9 µM	15.1 µM	> 50 µM	
O=S1CSCS1 (centres undefined)	> 100 µM	> 100 µM		> 100 µM	> 100 µM	> 100 µM	> 100 µM	> 100 µM												
O=C(c1ccccc1)C(c1ccccc1)C1(O)C(=O)Nc2ccccc21 (centres undefined)	> 100 µM	> 100 µM	> 100 µM	> 100 µM	> 100 µM	> 100 µM	> 100 µM	> 100 µM												
CC1(C)C(c2ccccc2)C12CCC1(C2=O)C(c2ccccc2)C1(C)C (centres undefined)	75.7 µM	33.6 µM	33.3 µM	42.7 µM		36.3 µM	39 µM	72.5 µM												
O=C(O)C1CCc2nnc(-c3ccccc3)n21 (centres undefined)	> 100 µM	> 100 µM	> 100 µM		> 100 µM	> 100 µM	> 100 µM	> 100 µM												
C/C=C(\C)c1cc(=O)c2c(C)cc3c(c2o1)C(=O)c1c(O)c(C2CC(C)(N(C)C)C(O)C(C)O2)cc(C2CC(N(C)C)C(O)C(C)O2)c1C3=O (centres undefined)	1.66 µM	4.09 µM and 20.1 µM					0.504 µM		0.153 µM		0.866 µM								1.42 µM	
O=C1c2ccccc2C(=O)C2C1C1C(=O)c3ccccc3C(=O)C21 (centres undefined)	> 100 µM	> 100 µM		> 100 µM	> 100 µM		> 100 µM	> 100 µM												
COc1c(C2=NC(C(C)C)CO2)ccc2ccccc12 (centres undefined)	> 100 µM	> 100 µM	65.6 µM	> 100 µM	> 100 µM	> 100 µM	> 100 µM	> 100 µM												
Cc1cc(=O)n(-c2ccccc2)c(=O)o1	> 100 µM	> 100 µM	> 100 µM	> 100 µM	> 100 µM	> 100 µM	> 100 µM	> 100 µM												
CCCN(CCCN)/[N+]([O-])=N\O	> 100 µM	> 100 µM	> 100 µM		> 100 µM	> 100 µM	> 100 µM	> 100 µM												
N=CCCN(CCC=N)c1ccc(/C=C2\CN(NC(=O)c3ccc(Cl)cc3)C(c3ccccc3)=N2)cc1	> 100 µM	> 100 µM	53.6 µM	> 100 µM	> 100 µM	> 100 µM	> 100 µM	> 100 µM												
COc1cc(-c2nn(-c3ccc(NC(=O)Nc4ccc(Cl)c(Cl)c4)cc3)cc2-c2ccncc2)ccc1Cl	> 100 µM	4.2 µM		4.75 µM	> 100 µM	69.1 µM	> 100 µM		3.58 µM	2.87 µM	8.8 µM	1.97 µM		1.98 µM	3.96 µM	3.35 µM		2.89 µM	> 100 µM	4.19 µM
NC(N)=NS(=O)(=O)c1ccc(Nc2c3ccccc3nc3c(C(=O)N4CCN(CCO)CC4)cccc23)cc1	> 100 µM	> 100 µM		> 100 µM	> 100 µM	> 100 µM	> 100 µM	> 100 µM												
Cc1ccc(NC(=O)CC/C(CC(=O)C(C)(C)C)=N/NC(=O)C(N)=O)cc1C	> 100 µM	> 100 µM	> 100 µM		> 100 µM	> 100 µM	> 100 µM	> 100 µM												
CN(C)c1ccc2c(c1)CN1C(=O)c3ccccc3C1=N2	> 100 µM	> 100 µM	> 100 µM	> 100 µM	> 100 µM	> 100 µM	> 100 µM	> 100 µM	> 100 µM			> 100 µM	> 100 µM	> 100 µM	> 100 µM	> 100 µM	> 100 µM			> 100 µM
COc1ccc(C2=Nc3ccccc3SC(C)C2)cc1 (centres undefined)	> 100 µM	> 100 µM	60.2 µM	> 100 µM	> 100 µM	> 100 µM	> 100 µM	> 100 µM												

Source: PubChem BioAssay (NCI)
